Literature values as cited in patent publication US20080044452A1, “DRUG DELIVERY SYSTEM FOR TREATMENT OF TRANSITIONAL CELL CARCINOMA” (priority 2006, published 2008).

For CO[C@@]12[C@H](COC(N)=O)C3=C(C(=O)C(C)=C(N)C3=O)N1C[C@@H]1N[C@@H]12 [Mitomycin C], the “stability in acidic urine” value is given as “not stable in acidic urine”.
